We go through 1 molecule from US20170014375A1, “PHARMACEUTICAL COMPOSITION COMPRISING EFFECTIVE DOSE OF POMIFERIN FOR TREATING CANCERS” (Macau University of Science and Technology, priority 2015, published 2017).

Assay [1] deals with Atg7 deficient (Atg7−/−) mouse embryonic fibroblasts. The assay can be described thus: Annexin V/PI flow cytometry cell death, Atg7−/− MEFs. Particulars: 2 μM, 24 h, FIG. 6B. In kind it is cell-based. As to the method: Cell viability is measured using an annexin V staining kit (BD Biosciences, San Jose, Calif., USA). Briefly, Atg7 wild-type (Atg7+/+ or Atg7-wt) and Atg7 deficient (Atg7−/− or Atg7-ko) mouse embryonic fibroblasts (MEFs) are treated with the 2 μM pomiferin for 24 h. Cells are then harvested and analysed by multiparametric flow cytometry using FITC-Annexin V and Propidium iodide staining (BD Biosciences, San Jose, Calif., USA) according to the manufacturer's instructions. Flow cytometry is then carried out using a FACSCalibur flow cytometer (BD Biosciences, San Jose, Calif., USA). Data acquisition and analysis is performed with CellQuest (BD Biosciences, San Jose, Calif., USA). Data are obtained from three independent experiments.
(In general: In flow cytometry, cells or beads pass a laser one at a time.)

Assay [2] concerns Bax-Bak DKO MEFs. Briefly: Annexin V/PI flow cytometry cell death, Bax-Bak DKO MEFs. The assay is classed as cell-based, mouse. Conditions: 24 h. As to the method: Cell death is measured using an annexin V staining kit (BD Biosciences, San Jose, Calif., USA). Briefly, Bax-Bak wild-type and Bax-Bak DKO MEFs are treated with the 5 μM pomiferin for 24 h. Cells are then harvested and analysed by multiparametric flow cytometry using FITC-Annexin V and Propidium iodide staining (BD Biosciences, San Jose, Calif., USA) according to the manufacturer's instructions. Flow cytometry is then carried out using a FACSCalibur flow cytometer (BD Biosciences, San Jose, Calif., USA). Data acquisition and analysis is performed with CellQuest (BD Biosciences, San Jose, Calif., USA). Data are obtained from three independent experiments. Cell death is measured using an annexin V staining kit (BD Biosciences, San Jose, Calif., USA). Briefly, Bax-Bak DKO MEFs are treated with the 5 μM pomiferin in the presence or absence of 5 mM autophagic inhibitor 3-MA for 24 h. Cells are then harvested and analysed by multiparametric flow cytometry using FITC-Annexin V and Propidium iodide staining (BD Biosciences, San Jose, Calif., USA) according to the manufacturer's instructions. Flow cytometry is then carried out using a FACSCalibur flow cytometer (BD Biosciences, San Jose, Calif., USA). Data acquisition and analysis is performed with CellQuest (BD Biosciences, San Jose, Calif., USA). Data are obtained from three independent experiments.

`CC(C)=CCc1c2c(c3occ(-c4ccc(O)c(O)c4)c(=O)c3c1O)C=CC(C)(C)O2` [pomiferin]: the “cell death (in words)” value in assay [1] was “not in autophagy deficient cells”; in assay [2] (5 μM pomiferin alone, Bax-Bak DKO cells, FIG. 8B) it was “significantly induced cell death”. Moreover, in assay [2] (5 μM, annexin V flow cytometry, Bax-Bak DKO MEFs), the cell death is given as approximately 80%.
